Data from PMC11645189 (ACS infectious diseases, 2024).

Columns and labels:
[1] = tested on: P. yoelii; assay: in vivo blood-stage efficacy in the P. yoelii mouse model; set-up: species or system Plasmodium yoelii
[2] = tested on: P. falciparum stage V gametocytes; assay: gametocytocidal assay using late-stage gametocytes; type: cell-based; settings: Plasmodium falciparum, read-out: sexual blood-stage vs. P. falciparum stage V gametocytes IC50
[3] = tested on: P. falciparum D6; settings: read-out: asexual blood-stage vs. P. falciparum D6 IC50; cited from earlier work

CCN(CC)CCCC(C)Nc1ccnc2cc(Cl)ccc12 (stereo not shown) [CQ, chloroquine]
in vivo %parasitemia reduction vs. controls on day 5 ([1]; 25 mg/kg/4d oral): 100%
in vivo %parasitemia reduction vs. controls on day 5 ([1]; 50 mg/kg/4d oral): 100%

CN(C)c1ccc2nc3ccc(=[N+](C)C)cc-3sc2c1 [methylene blue]
IC50 [2]: 143 nM

O=C1C(O)=C([C@H]2CC[C@H](c3ccc(Cl)cc3)CC2)C(=O)c2ccccc21 [ATQ, Atovaquone]
IC50 [3]: 0.1 nM
